In brackets after ≈: the same amount, converted by molar mass. Activity calls are given as the source filed them. No cut-off for these calls is given here.
What was measured:
Streptomyces griseus [1] = experiment: Antibacterial activity against Streptomyces griseus MTCC 4734 incubated for 24 hrs by serial dilution method; type: functional
Staphylococcus aureus [2] = experiment: Antibacterial activity against Staphylococcus aureus MTCC 3381 at 100 ug/ml incubated for 12 hrs by agar disc diffusion assay; type: functional; conditions: for zone of inhibition at 100 µg/mL: MTCC 3381, 12 h, read-out: IZ
Fusarium oxysporum [3] = experiment: Antifungal activity against Fusarium oxysporum ATCC 62506 incubated for 24 hrs by serial dilution method; type: functional
Bacillus subtilis [4] = experiment: Potency index, ratio of chloramphenicol MIC to compound MIC for Bacillus subtilis MTCC 10619 by serial dilution method; type: functional
[5] = Cytotoxicity against mouse NIH/3T3 cells assessed as cell viability at 25 ug/ml after 72 hrs by MTT assay relative to control; type: cell-based, NIH3T3; conditions: read-out: Activity
Escherichia coli [6] = experiment: Antibacterial activity against Escherichia coli MTCC 443 incubated for 24 hrs by serial dilution method; type: functional; conditions: MTCC 443, 24 h
Bacillus subtilis [7] = experiment: Antibacterial activity against Bacillus subtilis MTCC 10619 at 100 ug/ml incubated for 12 hrs by agar disc diffusion assay; type: functional; conditions: for zone of inhibition at 100 µg/mL: MTCC 10619, 12 h, read-out: IZ
Aspergillus niger [8] = experiment: Antifungal activity against Aspergillus niger ATCC 9029 at 100 ug/ml incubated for 72 hrs by agar disc diffusion assay; type: functional; conditions: for zone of inhibition at 100 µg/mL: ATCC 9029, 72 h, read-out: IZ
Fusarium oxysporum [9] = experiment: Antifungal activity against Fusarium oxysporum ATCC 62506 at 100 ug/ml incubated for 72 hrs by agar disc diffusion assay; type: functional; conditions: for zone of inhibition at 100 µg/mL: ATCC 62506, 72 h, read-out: IZ
Staphylococcus aureus [10] = experiment: Antibacterial activity against Staphylococcus aureus MTCC 3381 incubated for 24 hrs by serial dilution method; type: functional
[11] = Cytotoxicity against mouse NIH/3T3 cells assessed as cell viability at 250 ug/ml after 72 hrs by MTT assay relative to control; type: cell-based, NIH3T3; conditions: read-out: Activity
Trichoderma reesei [12] = experiment: Antifungal activity against Trichoderma reesei ATCC 13631 incubated for 24 hrs by serial dilution method; type: functional
Talaromyces funiculosus [13] = experiment: Antifungal activity against Penicillium funiculosum ATCC 11797 incubated for 24 hrs by serial dilution method; type: functional
Bacillus subtilis [14] = experiment: Antibacterial activity against Bacillus subtilis MTCC 10619 incubated for 24 hrs by serial dilution method; type: functional
Trichoderma reesei [15] = experiment: Antifungal activity against Trichoderma reesei ATCC 13631 at 100 ug/ml incubated for 72 hrs by agar disc diffusion assay; type: functional; conditions: for zone of inhibition at 100 µg/mL: ATCC 13631, 72 h, read-out: IZ
[16] = Cytotoxicity against mouse NIH/3T3 cells assessed as cell viability at 100 ug/ml after 72 hrs by MTT assay relative to control; type: cell-based, NIH3T3; conditions: read-out: Activity
Escherichia coli [17] = experiment: Antibacterial activity against Escherichia coli MTCC 443 at 100 ug/ml incubated for 12 hrs by agar disc diffusion assay; type: functional; conditions: MTCC 443, 12 h, read-out: IZ
Aspergillus niger [18] = experiment: Antifungal activity against Aspergillus niger ATCC 9029 incubated for 24 hrs by serial dilution method; type: functional
[19] = Cytotoxicity against mouse NIH/3T3 cells assessed as cell viability at 50 ug/ml after 72 hrs by MTT assay relative to control; type: cell-based, NIH3T3; conditions: read-out: Activity
Streptomyces griseus [20] = experiment: Antibacterial activity against Streptomyces griseus MTCC 4734 at 100 ug/ml incubated for 12 hrs by agar disc diffusion assay; type: functional; conditions: for zone of inhibition at 100 µg/mL: MTCC 4734, 12 h, read-out: IZ
Bacillus subtilis [21] = experiment: Potency index, ratio of ampicillin MIC to compound MIC for Bacillus subtilis MTCC 10619 by serial dilution method; type: functional
Talaromyces funiculosus [22] = experiment: Antifungal activity against Penicillium funiculosum ATCC 11797 at 100 ug/ml incubated for 72 hrs by agar disc diffusion assay; type: functional; conditions: for zone of inhibition at 100 µg/mL: ATCC 11797, 72 h, read-out: IZ
Staphylococcus aureus [23] = experiment: Potency index, ratio of ampicillin MIC to compound MIC for Staphylococcus aureus MTCC 3381 by serial dilution method; type: functional
Streptomyces griseus [24] = experiment: Potency index, ratio of ampicillin MIC to compound MIC for Streptomyces griseus MTCC 4734 by serial dilution method; type: functional

| Structure (SMILES) | MIC (Streptomyces griseus [1]; MTCC 4734, 24 h) | MIC (Fusarium oxysporum [3]; ATCC 62506, 24 h) | MIC (Escherichia coli [6]) | MIC (Staphylococcus aureus [10]; MTCC 3381, 24 h) | MIC (Trichoderma reesei [12]; ATCC 13631, 24 h) | MIC (Talaromyces funiculosus [13]; ATCC 11797, 24 h) | MIC (Bacillus subtilis [14]; MTCC 10619, 24 h) | MIC (Aspergillus niger [18]; ATCC 9029, 24 h) | zone of inhibition at 100 µg/mL (Staphylococcus aureus [2]) | viability at 72 h, 25 ug/ml [5] | zone of inhibition at 100 µg/mL (Bacillus subtilis [7]) | zone of inhibition at 100 µg/mL (Aspergillus niger [8]) | zone of inhibition at 100 µg/mL (Fusarium oxysporum [9]) | viability at 72 h, 250 ug/ml [11] | zone of inhibition at 100 µg/mL (Trichoderma reesei [15]) | viability at 72 h, 100 ug/ml [16] | zone of inhibition at 100 µg/mL (Escherichia coli [17]) | viability at 72 h, 50 ug/ml [19] | zone of inhibition at 100 µg/mL (Streptomyces griseus [20]) | zone of inhibition at 100 µg/mL (Talaromyces funiculosus [22]) | also measured |
| --- | --- | --- | --- | --- | --- | --- | --- | --- | --- | --- | --- | --- | --- | --- | --- | --- | --- | --- | --- | --- | --- |
| O=C1Oc2ccccc2N/C1=C\C(=O)c1ccc(C2CCCCC2)cc1 | 50 mg/L (≈ 144 µM) |  | 100 mg/L (≈ 288 µM) |  |  | 50 mg/L (≈ 144 µM) | 6.25 mg/L (≈ 18 µM) | 50 mg/L (≈ 144 µM) |  |  | 22 mm | 6 mm |  |  |  |  | 8 mm |  | 10 mm | 6 mm | inhibition zone (IZ) (Staphylococcus aureus [2]): inactive; MIC (Fusarium oxysporum [3]): inactive; inhibition zone (IZ) (Fusarium oxysporum [9]): inactive; MIC (Staphylococcus aureus [10]): inactive; MIC (Trichoderma reesei [12]): inactive; inhibition zone (IZ) (Trichoderma reesei [15]): inactive; Ratio (Bacillus subtilis [21]): 4 |
| O=C1Oc2ccc([N+](=O)[O-])cc2N/C1=C\C(=O)c1ccc(C2CCCCC2)cc1 | 12.5 mg/L (≈ 31.9 µM) | 50 mg/L (≈ 127 µM) | 25 mg/L (≈ 63.7 µM) | 6.25 mg/L (≈ 15.9 µM) | 25 mg/L (≈ 63.7 µM) | 25 mg/L (≈ 63.7 µM) | 12.5 mg/L (≈ 31.9 µM) | 25 mg/L (≈ 63.7 µM) | 20 mm | 98.2% | 16 mm | 18 mm | 10 mm | 79.2% | 20 mm | 82.5% | 18 mm | 89.1% | 22 mm | 16 mm | Ratio (Staphylococcus aureus [23]): 2 |
| O=C1Oc2ccc(Cl)cc2N/C1=C\C(=O)C1CC1 |  | 12.5 mg/L (≈ 47.4 µM) | 50 mg/L (≈ 190 µM) | 12.5 mg/L (≈ 47.4 µM) |  |  | 100 mg/L (≈ 379 µM) |  | 12 mm | 99% | 8 mm |  | 22 mm | 79.1% |  | 86.6% | 10 mm | 90.3% |  |  | MIC (Streptomyces griseus [1]): inactive; inhibition zone (IZ) (Aspergillus niger [8]): inactive; MIC (Trichoderma reesei [12]): inactive; MIC (Talaromyces funiculosus [13]): inactive; inhibition zone (IZ) (Trichoderma reesei [15]): inactive; MIC (Aspergillus niger [18]): inactive; inhibition zone (IZ) (Streptomyces griseus [20]): inactive; inhibition zone (IZ) (Talaromyces funiculosus [22]): inactive |
| O=C1Oc2ccc([N+](=O)[O-])cc2N/C1=C\C(=O)C1CC1 | 6.25 mg/L (≈ 22.8 µM) | 12.5 mg/L (≈ 45.6 µM) | 50 mg/L (≈ 182 µM) | 100 mg/L (≈ 365 µM) |  |  |  | 100 mg/L (≈ 365 µM) | 6 mm | 93.2% |  | 6 mm | 22 mm | 73.7% |  | 79.5% | 14 mm | 86% | 22 mm |  | inhibition zone (IZ) (Bacillus subtilis [7]): inactive; MIC (Trichoderma reesei [12]): inactive; MIC (Talaromyces funiculosus [13]): inactive; MIC (Bacillus subtilis [14]): inactive; inhibition zone (IZ) (Trichoderma reesei [15]): inactive; inhibition zone (IZ) (Talaromyces funiculosus [22]): inactive |
| O=C1Oc2cc([N+](=O)[O-])ccc2N/C1=C\C(=O)C1CC1 | 3.12 mg/L (≈ 11.4 µM) | 50 mg/L (≈ 182 µM) | 25 mg/L (≈ 91.2 µM) | 12.5 mg/L (≈ 45.6 µM) |  | 100 mg/L (≈ 365 µM) | 3.12 mg/L (≈ 11.4 µM) | 100 mg/L (≈ 365 µM) | 10 mm | 94.3% | 24 mm | 8 mm | 10 mm | 76.3% |  | 83.3% | 18 mm | 90.9% | 28 mm | 6 mm | Ratio (Bacillus subtilis [4]): 2; MIC (Trichoderma reesei [12]): inactive; inhibition zone (IZ) (Trichoderma reesei [15]): inactive; Ratio (Streptomyces griseus [24]): 4; Ratio (Bacillus subtilis [21]): 8 |

Continued, in another order:

| MIC (Streptomyces griseus [1]; MTCC 4734, 24 h) | MIC (Fusarium oxysporum [3]; ATCC 62506, 24 h) | MIC (Escherichia coli [6]) | MIC (Staphylococcus aureus [10]; MTCC 3381, 24 h) | MIC (Trichoderma reesei [12]; ATCC 13631, 24 h) | MIC (Talaromyces funiculosus [13]; ATCC 11797, 24 h) | MIC (Bacillus subtilis [14]; MTCC 10619, 24 h) | MIC (Aspergillus niger [18]; ATCC 9029, 24 h) | Structure (SMILES) | zone of inhibition at 100 µg/mL (Staphylococcus aureus [2]) | viability at 72 h, 25 ug/ml [5] | zone of inhibition at 100 µg/mL (Bacillus subtilis [7]) | zone of inhibition at 100 µg/mL (Aspergillus niger [8]) | zone of inhibition at 100 µg/mL (Fusarium oxysporum [9]) | viability at 72 h, 250 ug/ml [11] | zone of inhibition at 100 µg/mL (Trichoderma reesei [15]) | viability at 72 h, 100 ug/ml [16] | zone of inhibition at 100 µg/mL (Escherichia coli [17]) | viability at 72 h, 50 ug/ml [19] | zone of inhibition at 100 µg/mL (Streptomyces griseus [20]) | zone of inhibition at 100 µg/mL (Talaromyces funiculosus [22]) | also measured |
| --- | --- | --- | --- | --- | --- | --- | --- | --- | --- | --- | --- | --- | --- | --- | --- | --- | --- | --- | --- | --- | --- |
| 50 mg/L (≈ 127 µM) | 25 mg/L (≈ 63.7 µM) | 25 mg/L (≈ 63.7 µM) | 12.5 mg/L (≈ 31.9 µM) | 25 mg/L (≈ 63.7 µM) | 100 mg/L (≈ 255 µM) | 3.12 mg/L (≈ 7.95 µM) | 100 mg/L (≈ 255 µM) | O=C1Oc2cc([N+](=O)[O-])ccc2N/C1=C\C(=O)c1ccc(C2CCCCC2)cc1 | 14 mm | 97.8% | 24 mm | 8 mm | 20 mm | 78.3% | 12 mm | 84.6% | 18 mm | 89% | 10 mm | 14 mm | Ratio (Bacillus subtilis [4]): 2; Ratio (Bacillus subtilis [21]): 8 |
|  | 25 mg/L (≈ 69.4 µM) | 12.5 mg/L (≈ 34.7 µM) | 100 mg/L (≈ 278 µM) | 25 mg/L (≈ 69.4 µM) | 25 mg/L (≈ 69.4 µM) |  |  | O=C1Oc2cc([N+](=O)[O-])ccc2N/C1=C\C(=O)c1cccc2ccccc12 | 8 mm | 93.5% |  |  | 18 mm | 76.3% | 18 mm | 83% | 26 mm | 88.9% |  | 20 mm | MIC (Streptomyces griseus [1]): inactive; inhibition zone (IZ) (Bacillus subtilis [7]): inactive; inhibition zone (IZ) (Aspergillus niger [8]): inactive; MIC (Bacillus subtilis [14]): inactive; MIC (Aspergillus niger [18]): inactive; inhibition zone (IZ) (Streptomyces griseus [20]): inactive |
| 12.5 mg/L (≈ 32.4 µM) | 50 mg/L (≈ 129 µM) | 25 mg/L (≈ 64.7 µM) | 6.25 mg/L (≈ 16.2 µM) | 100 mg/L (≈ 259 µM) | 25 mg/L (≈ 64.7 µM) | 25 mg/L (≈ 64.7 µM) |  | O=C1Oc2ccc([N+](=O)[O-])cc2N/C1=C\C(=O)c1ccc(-c2ccccc2)cc1 | 20 mm | 91% | 18 mm |  | 14 mm | 77.1% | 10 mm | 77.6% | 16 mm | 83.5% | 20 mm | 16 mm | Ratio (Staphylococcus aureus [23]): 2; inhibition zone (IZ) (Aspergillus niger [8]): inactive; MIC (Aspergillus niger [18]): inactive |
